Experimental data taken from US20080267948A1, “Croos-B Structure Binding Compounds” (priority 2005, published 2008).
“Also recorded” adds a separate entry of the source.

Assays:
tPA/plasminogen [1] = biological target: T1, tPA/plasminogen (Homo sapiens, UniProt P00750); assay: tPA/plasminogen activation by OVA heated in the presence of compounds (substrate PNAPEP1751); assay type: biochemical; conditions: 25 μg/ml OVA, 25 μg/ml compound, […] DMSO
T1 construct: purchased Boehringer Ingelheim Actilyse
T1 sequence (P00750 36-562): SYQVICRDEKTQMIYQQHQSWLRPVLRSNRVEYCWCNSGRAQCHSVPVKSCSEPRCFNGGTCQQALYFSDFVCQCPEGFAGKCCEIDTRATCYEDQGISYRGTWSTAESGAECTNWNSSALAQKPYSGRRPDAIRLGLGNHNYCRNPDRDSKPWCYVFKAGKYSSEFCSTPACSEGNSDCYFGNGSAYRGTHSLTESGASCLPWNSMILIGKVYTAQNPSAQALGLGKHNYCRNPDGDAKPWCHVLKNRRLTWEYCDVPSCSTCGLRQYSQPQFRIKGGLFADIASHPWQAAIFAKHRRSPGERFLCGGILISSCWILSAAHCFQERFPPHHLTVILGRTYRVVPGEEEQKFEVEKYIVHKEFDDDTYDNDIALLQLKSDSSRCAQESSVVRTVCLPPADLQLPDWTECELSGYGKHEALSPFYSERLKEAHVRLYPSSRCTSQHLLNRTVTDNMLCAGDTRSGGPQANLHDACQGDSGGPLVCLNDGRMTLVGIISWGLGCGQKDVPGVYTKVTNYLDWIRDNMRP
Procedure: Heated OVA, either in PBS/1% DMSO (positive control), or in the same buffer in the presence of 1 mg/ml of the compounds, was used 40-fold diluted in the assay. Negative control was buffer without OVA. […] In addition, it was assessed whether the compounds interfere with absorbance readings at 405 nm, with converted chromogenic substrate. […] The yellow solution is divided over wells of an ELISA plate. […] Signals are compared and related to the control.

tPA/plasminogen [2] = biological target: T1, tPA/plasminogen; assay: tPA/plasminogen activation by pre-formed misfolded OVA in the presence of compounds; assay type: biochemical; conditions: 80-fold or 160-fold diluted compound and misfolded OVA stocks of 1 mg/ml
Procedure: […] Negative control was buffer without OVA. […] In addition, it was assessed whether the compounds interfere with absorbance readings at 405 nm, with converted chromogenic substrate. […] The yellow solution is divided over wells of an ELISA plate. […] Signals are compared and related to the control.

[3] = system: misfolded proteins (Hb-AGE, Aβ); assay: Binding of misfolded proteins from solution to immobilized small compounds (overall); conditions: compounds coated on ELISA plates, Hb-AGE or Aβ in solution
Procedure: (§1) To test the ability of the twelve selected compounds (see Table 7) to bind to misfolded proteins, the compounds were immobilized at 10/100/1000 μg/ml in the wells of 96-wells Greiner Microlon high binding plates, Nunc amino Immobilizer plates and Nunc Maxisorp plates. Compounds were coated in 100 mM NaHCO3 pH 9.6, 50 μl/well, 1 h at room temperature with agitation. As a control, wells were coated with buffer only. After blocking of the plates, wells were overlayed with solutions of 0.1/1/10 μg/ml Hb-AGE or 10/100 μg/ml Aβ, in binding buffer (PBS/0.1% Tween20). After washing, binding of Hb-AGE was assessed by overlaying wells with 1 μg/ml hybridoma antibody 4B5, which binds to glycations(^2), followed by RAMPO. Binding of Aβ was visualized using 500× diluted anti-Aβ antibodies (mouse antibody beta-amyloid Clone 6F/3D #M0872, lot 00003503, DAKOCytomation; β-amyloid (H-43) SC-9129, 200 μg/ml rabbit polyclonal IgG, Santa Cruz Biotechnology) and RAMPO/SWARPO in a 1:1 ratio. Finally, wells were overlayed with OPD/H2O2 solution, and H2SO4, before absorbance readings at 490 nm.

heat-denatured ovalbumin = biological target: T2, heat-denatured ovalbumin (Gallus gallus, UniProt P01012); assay: Thioflavin T fluorescence of ovalbumin and small compounds; design: species or system chicken; conditions: 1 mg/ml compound, 1 mg/ml OVA
T2 construct: purchased Sigma A5503
T2 sequence (P01012 1-386): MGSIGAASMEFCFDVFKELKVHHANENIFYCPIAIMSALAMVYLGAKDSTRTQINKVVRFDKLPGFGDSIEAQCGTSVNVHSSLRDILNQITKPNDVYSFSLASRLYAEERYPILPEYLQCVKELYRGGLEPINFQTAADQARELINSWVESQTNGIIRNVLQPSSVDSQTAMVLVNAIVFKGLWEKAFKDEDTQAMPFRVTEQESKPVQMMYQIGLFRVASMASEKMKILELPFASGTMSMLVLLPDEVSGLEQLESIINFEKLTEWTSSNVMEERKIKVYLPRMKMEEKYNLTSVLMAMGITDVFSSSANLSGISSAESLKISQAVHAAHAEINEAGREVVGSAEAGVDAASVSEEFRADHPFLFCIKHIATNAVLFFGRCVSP
Procedure: To establish the enhancement of Thioflavin T fluorescence by ovalbumin preparations, 90 μl of 25 μM ThT-solution in 50 mM Glycine buffer (pH 9.0) was added to 10 μl sample in duplicate wells of black 96-wells plates. Heat-denatured ovalbumin at 1 mg/ml in PBS with no addition, DMSO at a final concentration of 1% v/v, or 1 mg/ml of the compounds listed in Table 7, was used. Compound stocks are 100 mg/ml in DMSO. In addition, ovalbumin at 1 mg/ml with the same additions was first heat denatured and subsequently used in the fluorescence assay. Heat denaturation was according to the protocol given above. Fluorescence of duplicates was measured on a Thermo Fluoroskan Ascent 2.5, at 435 nm excitation and 485 nm emission wavelengths.

Aβ = biological target: T3, Aβ (Homo sapiens, UniProt P05067, E693Q); assay: Binding of Aβ from solution to immobilized small compounds; conditions: coat 100 μg/ml
T3 construct: Lyophilized human amyloid-β(1-40) with E22Q mutation ‘Dutch type’; purchased Peptide facility, Dutch Cancer Institute, Amsterdam; host or cells: synthetic peptide
Procedure: as §1, with “the compounds were immobilized at 10/100/1000 μg/ml in the wells of 96-wells” left out

Hb-AGE [4] = biological target: T4, Hb-AGE (Homo sapiens, UniProt P68871+P69905); assay: ELISA binding of tPA to immobilized Hb-AGE after pre-incubation with compounds; conditions: Hb-AGE first overlayed with compound (concentration series), then tPA
T4 construct: purchased Sigma-Aldrich H7379
T4 sequence (P69905 2-142 limits assumed): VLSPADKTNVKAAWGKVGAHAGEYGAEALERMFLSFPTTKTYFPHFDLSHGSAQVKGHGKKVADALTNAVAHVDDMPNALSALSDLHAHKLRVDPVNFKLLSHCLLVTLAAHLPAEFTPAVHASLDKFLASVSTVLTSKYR
T4 sequence (P68871 2-147 limits assumed): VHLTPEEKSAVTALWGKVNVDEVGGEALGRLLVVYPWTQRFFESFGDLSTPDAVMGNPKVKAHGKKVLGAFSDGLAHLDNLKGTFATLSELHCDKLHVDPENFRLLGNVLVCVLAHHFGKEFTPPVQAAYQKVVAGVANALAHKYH
Procedure: Compounds were now diluted 10× in PBS/0.1% Tween20 (500 μg/ml compound). […] With the selection, similar binding assays are performed with misfolded OVA and Aβ. Finally, concentration series of the selected compounds are used in the binding studies.

Hb-AGE [5] = biological target: T4, Hb-AGE; assay: Binding of Hb-AGE from solution to immobilized small compounds; conditions: coat 100 μg/ml
Procedure: as §1, with “the compounds were immobilized at 10/100/1000 μg/ml in the wells of 96-wells” left out

ovalbumin = biological target: T5, ovalbumin (Gallus gallus, UniProt P01012); assay: Transmission electron microscopy of ovalbumin heated in the presence of small compounds; design: species or system chicken; conditions: 1 mg/ml ovalbumin heated with 1 mg/ml compound
T5 construct: purchased Sigma A5503
T5 sequence (P01012 1-386): T2 sequence (P01012 1-386)
Procedure: For TEM analyses grids were prepared according to standard procedures. Ovalbumin samples at 1 mg/ml were applied to 100-mesh copper grids with carbon coated Formvar (Merck, Germany), and subsequently washed with PBS and H2O. Grids were applied to droplets of 2% (m/v) methylcellulose with 0.4% (m/v) uranylacetate pH 4. After a 2-minutes incubation grids were dried on a filter. Images were recorded at 80 kV, at suitable magnifications on a JEM-1200EX electron microscope (JEOL, Japan).

tPA = tPA (Homo sapiens, UniProt P00750); assay: tPA serine protease activity with OVA heated in the presence of compounds (substrate S-2765); assay type: biochemical; design: purchased Boehringer Ingelheim Actilyse; conditions: OVA heated with 1 mg/ml compound, 80-, 160- or 320-fold diluted, 100 nM tPA
Chain of tPA (P00750 36-562): as the sequence (P00750 36-562) above
Procedure: For this purpose, the influence of the compounds on heat-denaturation of OVA was analyzed (see above: Thioflavin T fluorescence measurements). Heated OVA at 1 mg/ml in PBS in the presence or absence of 1 mg/ml of the twelve compounds listed in Table 7 in PBS/DMSO (final DMSO concentration 1%) was used 80-fold or 160-fold or 320-fold diluted (final heated OVA concentration and compound concentration was 12.5 or 6.3 or 3.1 μg/ml; final DMSO concentration was 0.013% and 0.006% and 0.003%).

[6] = biological target: T6, glycated haemoglobin (Hb-AGE) (Homo sapiens, UniProt P68871+P69905); assay: ELISA binding of IgIV to immobilized Hb-AGE and inhibition studies; conditions: 15 μg/ml IgIV, concentration series of competitor
T6 construct: purchased Sigma-Aldrich H7379
T6 sequence (P69905 2-142 limits assumed): as the sequence (P69905 2-142 limits assumed) above
T6 sequence (P68871 2-147 limits assumed): as the sequence (P68871 2-147 limits assumed) above
Procedure: Binding of IgIV was determined using an enzyme linked immunosorbent assay (ELISA) set-up. For this purpose 50 μl/well of potential ligands at indicated concentrations or coat buffer only for control and background measurement purposes, were coated overnight at 4° C., with motion, in 50 mM NaHCO3 pH 9.6. Glycated albumin and Hb (BSA-AGE and Hb-AGE), control BSA and control Hb were coated at 5 μg/ml. The BSA and Hb controls were prepared freshly by dissolving lyophilized proteins at 1 mg/ml in PBS upon resuspending by pipetting, followed by a 30′ period at the roller bank, at room temperature. The protein solutions were centrifuged for 10′ at 16,000*g and diluted in coat buffer. Coat controls were performed with anti-glycated protein antibody, anti-albumin antibody, anti-Hb antibody. The alkaline phosphatase-conjugated anti-human Ig antibodies were controlled by coating the IgIV's and overlaying them the secondary antibodies. After coating the plates were washed twice with 50 mM Tris-HCl pH 7.3, 150 mM NaCl, 0.1% v/v Tween20, and blocked with 175 μl/well Blocking reagent (Roche Diagnostics, Almere, The Netherlands; catalogue number 11112589001), for 1 h at room temperature, with motion. Plates were washed twice and incubated in triplicate with indicated antibodies dilution series, plasma dilution series or controls, including binding buffer only, in the absence or presence of putative inhibitors, in binding buffer; PBS/0.1% v/v Tween20, at 50 μl/well, for 1 h at room temperature, with constant motion. After four wash cycles, secondary antibodies were added to the wells, 50 μl/well, for 45′ at room temperature, with motion. RAMPO and SWARPO were used at 2000 times dilution, goat anti-human IgG antibodies were diluted 3000 times, goat anti-human IgM antibodies were diluted 1000 times. After 5 washes with wash buffer followed by two washes with PBS, binding of antibodies was assessed. […] After 5′ absorbance was read at 405 nm. […] After 5′ absorbance was read at 490 nm. […] Triplicates were averaged and standard deviations calculated. […]

Row | influence on binding of IgIV to immobilized Hb-AGE [6] | Compound | influence on tPA/plasminogen activation by OVA pre-heated in the presence of compound (tPA/plasminogen [1]) | influence on tPA/plasminogen activation by pre-formed misfolded OVA (tPA/plasminogen [2]) | capture of misfolded protein from solution by immobilized compound [3] | influence on Thioflavin T fluorescence with misfolded OVA (heat-denatured ovalbumin) | Signal (a.u.) (Aβ; Nunc Maxisorp, Aβ 100 μg/ml) | Signal (a.u.) (Aβ; Nunc amino Immobilizer, Aβ 10 μg/ml) | Signal (a.u.) (Aβ; Nunc amino Immobilizer, Aβ 100 μg/ml) | influence on tPA binding to immobilized Hb-AGE (Hb-AGE [4]) | Signal (a.u.) (Hb-AGE [5]; Nunc Maxisorp, Hb-AGE 10 μg/ml) | Signal (a.u.) (Hb-AGE [5]; Nunc amino Immobilizer, Hb-AGE 1 μg/ml) | appearance of ovalbumin heated in the presence of compound on TEM image (ovalbumin) | influence on tPA protease activity of OVA heated in the presence of compound (tPA)
1 |  | Cc1c(C(=O)O)c(O)cc2c1C(=O)c1c(O)c([C@H]3O[C@H](CO)[C@@H](O)[C@H](O)[C@H]3O)c(O)c(O)c1C2=O [compound 19] | Inhibition of tPA/plasminogen activation by OVA pre-heated | Delayed tPA/plasminogen activation by misfolded OVA | Capture of misfolded protein from solution | Inhibition on Thioflavin T fluorescence with misfolded OVA | 0.08 | 0.03 | 0.04 | Stimulated tPA binding to immobilized misfolded protein (Hb- | 0.16 | 0.42 | Background as in Control, but less aggregated. Also | 
2 |  | Bucharaine [compound 8] |  | potent inhibitors of misfolded OVA-triggered plasmin generation; also recorded: fully abolish plasmin activity |  |  |  |  |  |  |  |  | no large OVA aggregates are seen | induces further stimulation of tPA by OVA; also recorded: induce increased tPA activity when combined with ovalbumin before heat-denaturation
3 | enhance the binding of IgIV | Thioflavin S |  |  |  |  |  |  |  |  |  |  |  | 
